Measured values from PubChem BioAssay AID2060625 (Molecular Pharmacology Branch, DTP, NCI, 2025).
“And” between values parts separate entries of the source, which are not always exact repeats. Identical values can stand only once.

Test system: 186277-243-T-J2-PDC spheroids with HUVEC/MSC, viability
Test: Anticancer human tumor 186277-243-T-J2-PDC patient-derived colon adenocarcinoma cell line growth inhibition [CLK]
Settings: for viability, T/C: stronger effect = lower value
From the text: A high-throughput screen of multi-cell type tumor spheroids was designed to identify active combinations of […] and targeted small molecules. Complex spheroids include a stromal component modeled by human endothelial cells (HUVEC) and fibroblasts modeled by human mesenchymal stem cells (MSCs). The concentration ranges selected for each drug and investigational agent were based upon clinically achievable concentrations if the clinical Cmax of the agent was known.
Compounds. The drugs and investigational agents: cirtuvivint (SM08502; NSC835563), CC-671 (NSC850746), vemurafenib (NSC761431), tapotoclax (NSC804041), sotorasib (NSC818433), adagrasib (NSC831453), MRTX-1133 (NSC836407), BAY2416964 (NSC825713), copanlisib (NSC816437), inavolisib (NSC800729), abemaciclib (NSC768073), osimertinib (NSC779217), entinostat (NSC756642), eltanexor (KPT-8602, NSC794443), venetoclax (NSC766270), ceralasertib (NSC777638), bortezomib (NSC756655), olaparib (NSC753686), talazoparib (NSC767125), alisertib (NSC759677), peposertib (NSC802822), gemcitabine (NSC613327), 5-fluorouracil (NSC19893), SN-38 (NSC673596), oxaliplatin (NSC266046), paclitaxel (NSC125973), and doxorubicin (NSC123127), were obtained from the National Cancer Institute (NCI) Developmental Therapeutics Program Chemical Repository. The FDA-approved anticancer drug set is available from the Developmental Therapeutics Program at https://dtp.cancer.gov/organization/dscb/obtaining/available plates.htm. […] The stock solutions were prepared in dimethyl sulfoxide (DMSO, Sigma-Aldrich, St. Louis, MO, cat. D2650), except for the platinum complexes which were prepared in saline (Quality Biological, Gaithersburg, MD, cat. 114-055-101), at 800-fold the tested concentration and stored at -70 degrees C prior to their use. All drugs and investigational agents were tested over a range starting from a high concentration at or near the clinical Cmax and decreasing in half-log increments. If the clinical Cmax for an agent had not been determined, the highest concentration tested was 10 microM.
Cell Culture. All cells were maintained in an incubator at 37 degrees C and 5% CO2 with 95% humidity. The PDC lines were cultured according to standard operating procedures established by the NCI PDMR. Briefly, all PDCs were thawed and cultured in Matrigel-coated flasks prepared with a working solution of 1X Ham's F-12 nutrient mix, without supplementation (Invitrogen, Waltham, MA, cat. 11765054), 100 U/mL penicillin-streptomycin (Invitrogen, cat. 15140122), and 2.5% Matrigel (Corning Inc., Corning, NY, cat. 354248) for the first three passages. The 947758-054-R-J2-PDC line was cultured in 6B/Colon 1A media, which includes advanced DMEM/F-12 (Thermo Fisher Scientific, cat. 12634028), 10 mM HEPES (Thermo Fisher Scientific, cat. 15630080), 1X GlutaMAX supplement (Thermo Fisher Scientific, cat. 35050061), 0.1 mg/mL primocin (InvivoGen, cat. ant-pm-2), 10% defined fetal bovine serum, heat inactivated (HyClone Laboratories Inc., cat. SH30070.03HI), 1.25 mM N-Acetyl-L-cysteine (Sigma-Aldrich, cat. A9165), 10 mM nicotinamide (Sigma-Aldrich, cat. N0636), 1X B-27 supplement (Thermo Fisher Scientific, cat. 17504044), 1X N-2 supplement (Thermo Fisher Scientific, cat. 17502048), and 10 microM Y-27632 dihydrochloride (Tocris Bioscience, cat. 1254). The 876862-298-R-J1-PDC was cultured in 6E media, which includes all 6B/Colon 1A media components plus 50% L-WRN conditioned media (ATCC, cat. CRL-3276), 50 ng/mL recombinant human EGF recombinant protein (hEGF; Thermo Fisher Scientific, cat. PHG0311), 10 ng/mL recombinant human fibroblast growth factor 10 (hGFG-10; PeproTech, cat. 100-26), 1 ng/mL recombinant human fibroblast growth factor 2 (hFGF-2; PeproTech, cat. 100-18B), and 1 µM prostaglandin E2 (PGE2; Tocris, cat. 2296). The 227483-062-R1-J1-PDC line was cultured in Panc media, containing all 6E components except hFGF-2, with the addition of 500 nM SB-431542 (Selleckchem, cat. S1067) and 10 nM gastrin (Tocris, cat. 3006). […]

[1] = curve of first compound, second compound 0.0316 µM
[2] = curve of first compound, second compound 0.1 µM
[3] = curve of first compound, second compound 0.316 µM
[4] = curve of first compound, second compound 1 µM
[5] = curve of first compound, second compound 3.16 µM
[6] = curve of first compound, second compound 10 µM
[7] = second compound 0.0316 µM, first compound 0.00316 µM
[8] = second compound 0.0316 µM, first compound 0.01 µM
[9] = second compound 0.0316 µM, first compound 0.0316 µM
[10] = second compound 0.0316 µM, first compound 0.1 µM
[11] = second compound 0.0316 µM, first compound 0.316 µM
[12] = second compound 0.0316 µM, first compound 1 µM
[13] = second compound 0.1 µM, first compound 0.00316 µM
[14] = second compound 0.1 µM, first compound 0.01 µM
[15] = second compound 0.1 µM, first compound 0.0316 µM
[16] = second compound 0.1 µM, first compound 0.1 µM
[17] = second compound 0.1 µM, first compound 0.316 µM
[18] = second compound 0.1 µM, first compound 1 µM
[19] = second compound 0.316 µM, first compound 0.00316 µM
[20] = second compound 0.316 µM, first compound 0.01 µM
[21] = second compound 0.316 µM, first compound 0.0316 µM
[22] = second compound 0.316 µM, first compound 0.1 µM
[23] = second compound 0.316 µM, first compound 0.316 µM
[24] = second compound 0.316 µM, first compound 1 µM
[25] = second compound 1 µM, first compound 0.00316 µM
[26] = second compound 1 µM, first compound 0.01 µM
[27] = second compound 1 µM, first compound 0.0316 µM
[28] = second compound 1 µM, first compound 0.1 µM
[29] = second compound 1 µM, first compound 0.316 µM
[30] = second compound 1 µM, first compound 1 µM
[31] = second compound 3.16 µM, first compound 0.00316 µM
[32] = second compound 3.16 µM, first compound 0.01 µM
[33] = second compound 3.16 µM, first compound 0.0316 µM
[34] = second compound 3.16 µM, first compound 0.1 µM
[35] = second compound 3.16 µM, first compound 0.316 µM
[36] = second compound 3.16 µM, first compound 1 µM
[37] = second compound 10 µM, first compound 0.00316 µM
[38] = second compound 10 µM, first compound 0.01 µM
[39] = second compound 10 µM, first compound 0.0316 µM
[40] = second compound 10 µM, first compound 0.1 µM
[41] = second compound 10 µM, first compound 0.316 µM
[42] = second compound 10 µM, first compound 1 µM
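Note: compound exposure lasted seven days before readout.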
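Throughout, for viability, T/C: 100% = DMSO vehicle control wells.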

COc1c(OCCCN2CCOCC2)ccc2c3n(c(=NC(=O)c4cnc(N)nc4)nc12)CCN3 + CN1CCN(c2cc(C(=O)Nc3cc4cc(-c5cnn(C)c5)ccc4cn3)ccn2)CC1
IC50 [1]: 27 nM
IC50 [2]: 7.37 nM
IC50 [3]: < 3.16 nM
IC50 [4]: < 3.16 nM
IC50 [5]: < 3.16 nM
IC50 [6]: < 3.16 nM
viability, T/C [7]: 93.9%
viability, T/C [8]: 69%
viability, T/C [9]: 50%
viability, T/C [10]: 25.4%
viability, T/C [11]: 14.8%
viability, T/C [12]: 12.5%
viability, T/C [13]: 68.3%
viability, T/C [14]: 43%
viability, T/C [15]: 21.3%
viability, T/C [16]: 7.94%
viability, T/C [17]: 6.07%
viability, T/C [18]: 5.15%
viability, T/C [19]: 20%
viability, T/C [20]: 11.7%
viability, T/C [21]: 3.4%
viability, T/C [22]: 1.12%
viability, T/C [23]: 1.11%
viability, T/C [24]: 0.75%
viability, T/C [25]: 2.09%
viability, T/C [26]: 0.39%
viability, T/C [27]: 0.99%
viability, T/C [28]: 0.18%
viability, T/C [29]: 0.78%
viability, T/C [30]: 0.88%
viability, T/C [31]: 2.33%
viability, T/C [32]: 1.2%
viability, T/C [33]: 1.43%
viability, T/C [34]: 0.42%
viability, T/C [35]: 0.95%
viability, T/C [36]: 0.47%
viability, T/C [37]: 0.65%
viability, T/C [38]: 0.74%
viability, T/C [39]: 0.78%
viability, T/C [40]: 0.76%
viability, T/C [41]: 1.19%
viability, T/C [42]: 0.45%

COC1C=CCC(C)C(C)S(=O)(=O)NC(=O)c2ccc3c(c2)N(CC2CCC21)CC1(CCCc2cc(Cl)ccc21)CO3 (stereo not drawn) + CN1CCN(c2cc(C(=O)Nc3cc4cc(-c5cnn(C)c5)ccc4cn3)ccn2)CC1
IC50 [1]: 4120 nM
IC50 [2]: 1120 nM
IC50 [3]: < 31.6 nM
IC50 [4]: < 31.6 nM
IC50 [5]: < 31.6 nM
IC50 [6]: < 31.6 nM
viability, T/C [9]: 102%
viability, T/C [10]: 97.9%
viability, T/C [11]: 103%
viability, T/C [12]: 87.3%
viability, T/C (second compound 0.0316 µM, first compound 3.16 µM): 64.4%
viability, T/C (second compound 0.0316 µM, first compound 10 µM): 3.46%
viability, T/C [15]: 87.5%
viability, T/C [16]: 91.2%
viability, T/C [17]: 74%
viability, T/C [18]: 54.3%
viability, T/C (second compound 0.1 µM, first compound 3.16 µM): 21.4%
viability, T/C (second compound 0.1 µM, first compound 10 µM): 2.36%
viability, T/C [21]: 25.6%
viability, T/C [22]: 30.4%
viability, T/C [23]: 16.9%
viability, T/C [24]: 5.75%
viability, T/C (second compound 0.316 µM, first compound 3.16 µM): 3.04%
viability, T/C (second compound 0.316 µM, first compound 10 µM): 1.3%
viability, T/C [27]: 1.87%
viability, T/C [28]: 0.6%
viability, T/C [29]: 0.97%
viability, T/C [30]: 0.6%
viability, T/C (second compound 1 µM, first compound 3.16 µM): 0.3%
viability, T/C (second compound 1 µM, first compound 10 µM): 0.24%
viability, T/C [33]: 1.99%
viability, T/C [34]: 0.97%
viability, T/C [35]: 1.2%
viability, T/C [36]: 0.98%
viability, T/C (second compound 3.16 µM, first compound 3.16 µM): 1.26%
viability, T/C (second compound 3.16 µM, first compound 10 µM): 0.58%
viability, T/C [39]: 0.93%
viability, T/C [40]: 1.11%
viability, T/C [41]: 1.01%
viability, T/C [42]: 0.62%
viability, T/C (second compound 10 µM, first compound 3.16 µM): 1.39%
viability, T/C (second compound 10 µM, first compound 10 µM): 0.26%

Cn1ncnc1[C@H]1c2n[nH]c(=O)c3cc(F)cc(c23)N[C@@H]1c1ccc(F)cc1
viability, T/C (compound 0.000316 µM): 99.8% and 98.2%
viability, T/C (compound 0.001 µM): 73.1% and 89.7%
viability, T/C (compound 0.00316 µM): 109% and 110%
viability, T/C (compound 0.01 µM): 100% and 103%
viability, T/C (compound 0.0316 µM): 115% and 127%
viability, T/C (compound 0.1 µM): 121% and 134%
IC50 (curve of compound): > 100 nM

COc1c(OCCCN2CCOCC2)ccc2c3n(c(=NC(=O)c4cnc(N)nc4)nc12)CCN3 + CNC(=O)c1ccc(Nc2nc(OC3CCCC3)c3c(-c4ccc5nc(C)oc5c4)c[nH]c3n2)c(OC)c1
IC50 [1]: 29.9 nM
IC50 [2]: < 3.16 nM
IC50 [3]: < 3.16 nM
IC50 [4]: < 3.16 nM
IC50 [5]: < 3.16 nM
IC50 [6]: < 3.16 nM
viability, T/C [7]: 86.7%
viability, T/C [8]: 93.3%
viability, T/C [9]: 47.4%
viability, T/C [10]: 20%
viability, T/C [11]: 13.3%
viability, T/C [12]: 7.3%
viability, T/C [13]: 49.4%
viability, T/C [14]: 42.1%
viability, T/C [15]: 23.9%
viability, T/C [16]: 9.52%
viability, T/C [17]: 9.27%
viability, T/C [18]: 5.48%
viability, T/C [19]: 29.3%
viability, T/C [20]: 22.8%
viability, T/C [21]: 12.3%
viability, T/C [22]: 6.69%
viability, T/C [23]: 6.54%
viability, T/C [24]: 3.73%
viability, T/C [25]: 17.2%
viability, T/C [26]: 14.2%
viability, T/C [27]: 9.1%
viability, T/C [28]: 6.05%
viability, T/C [29]: 5.94%
viability, T/C [30]: 2.82%
viability, T/C [31]: 17%
viability, T/C [32]: 15%
viability, T/C [33]: 8.99%
viability, T/C [34]: 4.81%
viability, T/C [35]: 4.85%
viability, T/C [36]: 1.73%
viability, T/C [37]: 21%
viability, T/C [38]: 14.5%
viability, T/C [39]: 6.54%
viability, T/C [40]: 6.2%
viability, T/C [41]: 3.21%
viability, T/C [42]: 2.06%
